{
  "source": "patent US20230102247A1",
  "about": "“METHODS AND COMPOSITIONS RELATING TO IONIC LIQUID ADJUVANTS” (PRESIDENT AND FELLOWS OF HARVARD COLLEGE, priority 2020, published 2023)",
  "key": {"[1]": {"conditions": "cited from earlier work"}, "[2]": {"molecular_target": "T1, OVA (Gallus gallus, UniProt P01012)", "T1 sequence (P01012 whole entry)": "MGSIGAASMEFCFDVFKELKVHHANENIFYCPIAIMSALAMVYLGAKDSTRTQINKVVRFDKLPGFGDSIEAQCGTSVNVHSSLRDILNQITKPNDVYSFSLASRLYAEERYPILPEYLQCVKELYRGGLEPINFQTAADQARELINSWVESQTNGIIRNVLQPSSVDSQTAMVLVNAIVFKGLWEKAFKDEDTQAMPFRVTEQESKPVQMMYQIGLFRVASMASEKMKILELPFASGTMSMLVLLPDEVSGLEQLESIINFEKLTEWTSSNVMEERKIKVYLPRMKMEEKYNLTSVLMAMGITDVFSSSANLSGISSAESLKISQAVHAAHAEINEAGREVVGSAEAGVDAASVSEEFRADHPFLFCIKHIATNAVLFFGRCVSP", "conditions": "10% w/v CoLa in saline, compared to alum", "quoted_text": "For the CoLa adjuvant formulation, 10% w/v CoLa was added unless specified. Adsorbed OVA was quantified using a plate reader (Spectramax i3™)"}, "[3]": {"molecular_target": "T1, OVA", "quoted_text": "An SDS-PAGE assay was carried out to assess OVA aggregation from the OVA-CoLa or alum samples. 1 mg mL-1 OVA in 10% v/v CoLa or 2% alum were incubated for 1 h at room temperature (25° C.). OVA in saline was used as a negative control. […] Before electrophoresis, all samples were centrifuged at 5000×g for 5 min to discard any undissolved residue and the clear supernatants were adjusted to equivalent protein concentration. […] The protein bands were stained with Bio-Safe Coomassie stain (BioRad) for observation according to the manufacturer's protocol. Circular dichroism spectrophotometry (Jasco J-1500, Easton) was performed in the far-UV region (190-250 nm) to collect spectra. The three OVA (0.5 mg mL-1) containing formulations were centrifuged for 10 min at 10,000×g. The supernatant was removed via pipetting, while the soft OVA pellet at the bottom of the tube was not disturbed. The pellet was washed with 1 mL PBS and centrifuged again to remove the supernatant. The washing/centrifugation steps were repeated until no OVA pellet was formed during centrifugation. Rectangular quartz cells with a 1 mm path length (1-Q-1) were loaded with 400 μL of a sample. As a control spectrum, OVA in PBS was used. Each spectrum was the average of three scans."}, "[4]": {"molecular_target": "T1, OVA", "remark": "listed apart in the source", "quoted_text": "OVA containing solutions (0.5 mg mL-1) and complete medium (DMEM+10% FBS) were mixed to a total volume of 500 μL and incubated at 37° C. on a tube revolver. At regular time points, the suspensions were centrifuged at 12 000×g for 15 min and the supernatant was collected for analysis. The pellet was further resuspended in 400 μL fresh release media and incubated until the next time point."}, "[5]": {"tested_on": "immune response to OVA", "description": "(§1) Female Balb/C mice (6-8-week-old) were purchased from Charles River Laboratories. All experiments were performed according to the approved protocols by the Institutional Animal Care and Use Committee (IACUC) of the Faculty of Arts and Sciences (FAS), Harvard University, Cambridge.\nBalb/c mice were subcutaneously injected in the back with 50 μL of OVA-saline, OVA-CoLa or alum (n=8 for all groups). A total of three injections were given on day 0, day 7 and day 14. On day 19, the mice were euthanized, blood and spleen were collected for further analysis.\nBlood was centrifuged at 5000 rpm for 10 minutes at 4° C. to separate the serum from the cells. Anti-OVA IgG titer was measured as previously described^13."}, "[6]": {"tested_on": "infiltrating immune cells at the injection site", "conditions": "subcutaneous, 24 h", "description": "as §1\nBalb/c mice were subcutaneously injected in the back with 50 μL of saline, CoLa or alum (n=4 for all groups). […] Undigested tissue was removed by 70 μm mesh filtration. The suspension was centrifuged at 400×g for 10 min. The supernatant was removed via pipetting and 2 mL ACK lysing buffer (Thermo Fisher) was added to the pellet. After 5 min the suspensions were centrifuged again and resuspended with 2 mL FCS blocking buffer."}},
  "note": "Where a name gives a salt, the structure may show the parent alone. Read-outs that look alike come from different tables or passages of the source.",
  "data": [
    {"compound": "CCCCC(CC)COS(=O)(=O)O", "note": "(stereo not drawn) [2-Ethylhexyl sulfate]", "values": [
      {"measurement": "LogP", "setting": "[1]", "result": 3.10}
    ]},
    {"compound": "CC(C)=CC(=O)O", "note": "[3,3-dimethylacrylic acid]", "values": [
      {"measurement": "LogP", "setting": "[1]", "result": 1.2}
    ]},
    {"compound": "O=S(=O)(O)c1ccc(O)cc1", "note": "[4-hydroxybenzenesulfonic acid]", "values": [
      {"measurement": "LogP", "setting": "[1]; exemplary anions", "result": 0.2}
    ]},
    {"compound": "O=C(O)c1cccc(-c2ccccc2)c1", "note": "[Biphenyl-3-carboxylic acid]", "values": [
      {"measurement": "LogP", "setting": "[1]; exemplary anions", "result": 3.5}
    ]},
    {"compound": "CC(O)C(=O)O.CC(O)C(=O)[O-].C[N+](C)(C)CCO", "note": "[CoLa, Choline lactate (1:2)]", "values": [
      {"measurement": "OVA adsorption on adjuvant", "setting": "[2]", "result": "lower adsorption"},
      {"measurement": "secondary structure of OVA (CD analysis)", "setting": "[3]", "result": "preserved"},
      {"measurement": "molecular integrity of adsorbed OVA (SDS-PAGE)", "setting": "[3]; similar to alum and saline", "result": "maintained the molecular integrity"},
      {"measurement": "time over which adsorbed OVA was released", "setting": "[4]; 10% w/v CoLa in saline, DMEM+10% FBS, 37° C.", "result": 24, "unit": "h"},
      {"measurement": "release of adsorbed OVA", "setting": "[4]; compared to alum", "result": "faster release"},
      {"measurement": "Th2 response, as assessed by anti-OVA IgG", "setting": "[5]; compared to alum", "result": "non-significant Th2 response"},
      {"measurement": "Th1 response", "setting": "[5]; injections day 0, 7, 14, analysis day 19", "result": "strong Th1 response"},
      {"measurement": "activated dendritic cells (CD80)", "setting": "[5]; spleen, CoLa versus alum", "result": "significantly higher"},
      {"measurement": "increase in IFN-γ+CD4 cells", "setting": "[5]; spleen, compared to alum", "result": "~3", "unit": "fold"},
      {"measurement": "increase in the number of CD4 cells", "setting": "[5]; spleen, compared to both the other groups", "result": 50, "unit": "%"},
      {"measurement": "increase in the CD8 cells", "setting": "[5]; spleen, compared to the controls", "result": 5, "unit": "fold"},
      {"measurement": "increase in natural killer (NK) cells", "setting": "[5]; spleen, compared to the saline group", "result": "~1.8", "unit": "fold"},
      {"measurement": "infiltrating CD8 cells", "setting": "[6]", "result": "no such effect"},
      {"measurement": "CD86 (activation marker) on infiltrating dendritic cells", "setting": "[6]; compared to the controls", "result": "significant increase"},
      {"measurement": "increase in infiltration of CD4 cells", "setting": "[6]; compared to the controls", "result": "~25", "unit": "%"},
      {"measurement": "higher infiltration of dendritic cells", "setting": "[6]; compared to untreated and alum-treated mice", "result": 20, "unit": "%"}
    ]},
    {"compound": "O=C(O)[C@H](O)[C@@H](O)[C@H](O)[C@H](O)CO", "note": "[Gluconic acid]", "values": [
      {"measurement": "LogP", "setting": "[1]; exemplary anions", "result": "−3.4"}
    ]},
    {"compound": "O=C(O)CO", "note": "[Glycolic acid]", "values": [
      {"measurement": "LogP", "setting": "[1]; exemplary anions", "result": "−1.11"}
    ]},
    {"compound": "O=C(O)CCc1ccccc1", "note": "[Hydrocinnamic acid]", "values": [
      {"measurement": "LogP", "setting": "[1]; exemplary anions", "result": 1.84}
    ]},
    {"compound": "CC(C)C(=O)O", "note": "[Isoburtyric acid]", "values": [
      {"measurement": "LogP", "setting": "[1]; exemplary anions", "result": 0.94}
    ]},
    {"compound": "O=C(O)/C=C\\C(=O)O", "note": "[Maleic acid]", "values": [
      {"measurement": "LogP", "setting": "[1]; exemplary anions", "result": "−0.48"}
    ]},
    {"compound": "O=P(O)(O)Oc1ccccc1", "note": "[Phenylphosphoric acid]", "values": [
      {"measurement": "LogP", "setting": "[1]; exemplary anions", "result": 1.05}
    ]},
    {"compound": "CCC(=O)O", "note": "[Propanoic acid]", "values": [
      {"measurement": "LogP", "setting": "[1]; exemplary anions", "result": 0.33}
    ]}
  ]
}
